Source: a melting point compilation (Tetko et al.; mined from patent text by program, amines drawn as free bases though some values may be those of a salt)

Structure (SMILES)	melting point
CCCCN1CC=C(c2cccc3[nH]ccc23)CC1	91 °C
CC(=O)C1(COC(=O)Oc2ccccc2)CC2C=CC1CC2 (stereo not drawn)	58 to 60 °C
CCCc1cc(OCc2ccc(C(=O)O)cc2)c2ccccc2n1	225 to 227 °C
CC(C)(C)CN1C(=O)C2CC2(c2ccc(N)cc2)C1=O (stereo not drawn)	118 to 119 °C
Cc1nc(Cc2ccc(NC(=O)/C=C/c3cnn(C)c3-c3ccc(F)cc3)cc2)cs1	192 to 193 °C
CN1CCN(c2ncnc3oc(-c4ccc([N+](=O)[O-])cc4)c(-c4ccc(F)cc4)c23)CC1	> 250 °C
COc1cc(C(=O)O)cc2c1C(=O)c1ccccc1CC2	222 to 227 °C
O=C(NO)NCCc1cc2ccccc2o1	157 to 158 °C
CN1CCC(CC(=O)N2c3ccccc3NC(=O)c3cscc32)CC1	184 to 185 °C
COc1ccc(CC2SC(=O)NC2=O)c2c1N(Cc1ccc(N)cc1)C(=O)CC2 (stereo not drawn)	174 to 175 °C
CCOC(=O)CCCOc1c(Br)cc(Br)c(C(N)=O)c1Br	138 to 140 °C
O=C(NCC12CC3CC(CC(C3)C1)C2)c1cc(-c2cccnc2N2CCC[C@H]2C(=O)O)ccc1Cl	121 to 125 °C
CS(=O)(=O)c1ccc(-c2cnn(-c3cccc(Cl)c3)c(=O)c2SCc2ccco2)cc1	140 to 149 °C
CCOc1ccc(-c2nc(CCC(=O)c3nccs3)cs2)cc1OCC	93.1 to 94.4 °C
C#Cc1cc(Cl)cc2nc(Cc3cc(C(C)(C)C)c(O)c(C(C)(C)C)c3)oc12	152 to 155 °C
NC(=O)C1=C(S(=O)Cc2ccccc2)CCC1 (stereo not drawn)	174 °C
O=CN(O)C(CCCO)CS(=O)(=O)c1ccc(-c2ccc(Cl)cc2)cc1 (stereo not drawn)	160 °C
O=C1N(C(c2ccccc2)c2ccccc2)c2ccccc2C12COc1cc3c(cc12)OCCO3 (stereo not drawn)	183 to 185 °C
CN1C(=O)CC[C@]2(C)c3ccc(Sc4nccc5sccc45)cc3CC[C@@H]12	196 to 197 °C
COc1ccc(N2C(=O)C3=C(CCCC3)C2CC(=O)O)cc1 (stereo not drawn)	203 to 204 °C
Oc1cccc(OCCn2ccnc2)c1	125 to 127 °C
O=C(O)c1ccc(OCC2CN(c3ccc([N+](=O)[O-])cc3)C(=O)O2)cc1 (stereo not drawn)	236 to 238 °C
CS(=O)(=O)c1ccc(-n2nc(C(F)(F)F)cc2-c2ccc(-c3cc4ccccc4o3)cc2)cc1	137 to 138 °C
CC(C)(O)Cn1c(CONS(C)(=O)=O)nc2c(N)nc3ccccc3c21	232 to 234 °C
COc1cc([N+](=O)[O-])c(N)cc1C(=O)Oc1ccccc1	130 to 132 °C

Structure (SMILES)	melting point
CN(C)c1ccc(-c2cc(C(F)(F)F)c3c(-c4ccccc4)nn(COCC[Si](C)(C)C)c3n2)cc1	98 °C
O=C1c2ccccc2-n2cnc(Cl)c2[C@@H]2CCN12	210 to 214 °C
CCN(CC)C(=O)n1ccc(Sc2cccc(C)c2)n1	96 to 98 °C
COCN(COC)c1ccn2nc(-c3ccccc3)c(-c3ccc(=O)n(C(C)C)n3)c2c1	148 to 150 °C
C#CCN(C)c1nc(CO)cs1	69 to 70 °C
Clc1c(CBr)c(CBr)cc2ccccc12	108 °C
Cc1noc(-c2ccc(-c3cscn3)cc2)c1-c1ccc(S(N)(=O)=O)cc1	236 °C
Cc1cc(-c2ccccc2)n2nc(C(=O)N(C)C3CCCCC3)cc2n1	158 to 162 °C
COc1ccc2ccc(S(=O)(=O)Cl)cc2c1	81 to 85 °C
CCCNCC1Cc2cc(F)cc(-c3c(Cl)cccc3Cl)c2O1 (stereo not drawn)	> 250 °C
CC(C)Oc1ccc(-n2c(CC(=O)O)c(C(=O)O)c3cc(Oc4cccc(C(F)(F)F)c4)ccc32)cc1	203 °C
CCC(N)CCCCCCCCC(C)(C)C(=O)O (stereo not drawn)	164 to 165 °C
CN(CCO)Cc1cc(C(=O)c2ccccc2)cc(C2CCCCC2)c1O	92 to 93 °C
c1ccc(-c2cc[nH]c2-c2ccccc2)cc1	130 to 131 °C
CS(=O)(=O)c1ccc(-c2cc(C(CCCCCO[N+](=O)[O-])=NO)nn2C2CCCCC2)cc1	111 to 113 °C
CN(C)C=Nc1c(Cl)cc(N=Cc2cccc(Br)c2)cc1Cl	136 to 138 °C
CCCCN(Cc1ccc(-c2ccccc2C#N)cc1)C(=O)Cc1ccccc1C(=O)O	137 to 139 °C
CC#CCCCCCCCCCCCC	36 to 37 °C
CCCC(NS(=O)(=O)c1ccc(Cl)cc1)C(=O)NNC(=S)NC (stereo not drawn)	191 to 195 °C
COc1cc(CC(=O)NCCCc2ccc(C)c(C)c2)ccc1OCCN	125 °C
c1ncn(-c2cc3cc[nH]c3cn2)n1	203 to 205 °C
c1ccc(OCCSCc2nnc(-c3ccc(OCCCCN4CCCCCC4)cc3)o2)cc1	35 to 38 °C
CC(C)Nc1ncc2cc(-c3c(Cl)cccc3Cl)c(=O)n(C)c2n1	194 to 196 °C
CC(C)(C)OC(=O)Nc1cccc(-c2noc(CCC(=O)O)n2)c1	143 to 144 °C
O=c1c(Br)c(N2CCC(c3ccccc3)CC2)ccn1CC1CC1	150 °C

Structure (SMILES)	melting point
Oc1ccc2cc(COC=C3C4CC5CC(C4)CC3C5)ccc2c1	133 to 140 °C
CN1CCCCC1CCc1ccccc1NC(=O)C#Cc1ccccc1 (stereo not drawn)	104 to 106 °C
O=C(O)c1ccc(C2OC2C(=O)c2ccccc2)cc1 (stereo not drawn)	170 to 172 °C
COc1cc2c(cc1OCc1ccccc1)C1Cc3c(Cl)cc(OC)c(OC(=O)c4ccccc4)c3CN1CC2 (stereo not drawn)	170 to 172 °C
O=C(Cc1ccc(Oc2ccccc2)cc1)NC1(C(=O)O)Cc2ccc(-c3ccc(Cl)cc3)cc2C1 (stereo not drawn)	227 to 228 °C
O=C1CCC(CCC(=O)OCc2ccc(Cl)cc2)N1 (stereo not drawn)	63 to 64 °C
CSc1ccc(CCC(C)=NO)cc1	71 °C
CCC(NC(Cc1cccnc1C)=NC#N)c1ccccc1 (stereo not drawn)	52 to 54 °C
CS(=O)c1ccc(-c2cn3c(c2-c2ccccc2)CCC3)cc1 (stereo not drawn)	67 to 68 °C
CC1(C)OC[C@@H](CNc2ccc3cc(OCC4CC4)ccc3c2)O1	108 to 109 °C
COc1ccc(-c2cc3c(s2)c(=O)c(SC)cn3C)cc1	182 to 184 °C
COC(=O)c1ccc2c(c1)S(=O)(=O)c1ccccc1NC2	236 °C
CC(C)(C)OC(=O)N1CCC[C@H]1CNc1ccc2nccn2n1	161 to 162 °C
Brc1c[nH]nc1-c1ccccc1	114 to 116 °C
Cc1c(-c2cccnc2)n(Cc2ccc(C(=O)O)cc2)c2ccccc12	273 to 275 °C
O=C1C=C2CN(C(C(=O)C3CC3)c3ccccc3Cl)CCC2S1 (stereo not drawn)	119 to 123 °C
CC(C(=O)c1ccc(Cl)cc1)n1ncn(-c2ccc(N3CCN(Cc4ccccc4)CC3)cc2)c1=O (stereo not drawn)	164 °C
CC(C)Oc1cc(CCCOc2cc(CCC(=O)O)n(C)n2)cc(COc2ccc(Cl)cc2Cl)c1	116 to 120 °C
C=C(C)C(=O)N(NC(=O)c1ccccc1)C(C)(C)C	148 to 152 °C
COc1cnc(CCCOc2cccc(CN3CCCC3)c2)[nH]c1=O	92 to 95 °C
O=c1[nH]c2cc(Cl)ccc2c(O)c1Sc1ccc([N+](=O)[O-])cc1	> 300 °C
CC(C)C(=O)CCC(C)C1CCC2C3CC=C4CC(O)CCC4(C)C3CCC12C (stereo not drawn)	135 to 136 °C
CCn1cnc2c(Nc3cccc(Cl)c3)nc(NCCN)nc21	79 to 80 °C
